Values quoted from earlier work in patent publication US20220323523A1, “METHOD AND APPARATUS FOR THE INFUSION OF CA[…] A SHELF-STABLE FOOD COMPOSITION” (priority 2019, published 2022).

Settings: rats; for enhancement of exposure by co-administration of lipids compared to lipid-free formulations: co-administration of lipids vs lipid-free formulations

Row | Compound | enhancement of exposure by co-administration of lipids compared to lipid-free formulations | enhancement of bioavailability by co-administration of cannabinoids with lipids
1 | CCCCCc1cc(O)c2c(c1)OC(C)(C)[C@@H]1CCC(C)=C[C@@H]21 [THC, Tetrahydrocannabinol] | 2.5 fold | more than 2.5 fold
2 | C=C(C)[C@@H]1CCC(C)=C[C@H]1c1c(O)cc(CCCCC)cc1O [CBD, Cannabidiol] | 3 fold | ~3 fold
